Test system: 2,3-DPG, ATP, p50, deformability of sickle RBCs
Test: Phase 1, SCD patients single 700 mg dose: pharmacodynamics
Format: in vivo, human
Protocol: In this study, SAD/MAD cohorts are randomized (3 to 1) to receive Compound 1 or placebo (P). Compound 1 was evaluated first in 4 healthy SAD cohorts and 4 healthy MAD (14-day dosing period) cohorts. Based on the safety, and PK/PD profile from HS, Compound 1 is then evaluated in 1 SCD SAD cohort and 2 SCD MAD cohorts. Specifically, based on the safety and pharmacokinetic/pharmacodynamics (PK/PD) profile in healthy volunteer studies, Compound 1 is evaluated in patients (pts) with SCD, first in a single dose (SD or SAD) cohort and then in multiple-dose (MD or MAD) cohorts (14-day and 12-week). Safety assessments include AEs, vital signs, ECGs and laboratory parameters. PK/PD blood sampling was performed on Day 1 (SAD/MAD) and Day 14 (MAD) and up to 72 h after the last dose and at the end-of-study visit. PD parameters included 2,3-DPG, ATP, and p50 in all cohorts with additional PD studies (including oxygen scan) performed only in the SCD cohorts. PD parameters included 2,3-DPG, ATP, p50, RBC deformability with controlled deoxygenation and reoxygenation (Lorrca® oxygen scan) and varying osmolality (Lorrca® osmoscan)). To maintain study blind, pt identifiers were removed when needed.
A potential exposure to the maximum PD response dose range to evaluate in patients with SCD was identified. Based on the safety and PK/PD profile in healthy volunteer studies, a 700 mg single dose was evaluated in patients with SCD (n=7). A single 700 mg dose of Compound 1 was selected to evaluate in patients with SCD to enable daily dosing cohorts at lower exposures.
The effects of a single dose of Compound 1 (700 mg) versus placebo on oxygen scan, oxygen affinity (p50), and osmoscan in SCD patients were evaluated. At the Point of Sickling (POS or PoS), polymerization of de-oxy HbS can affect the deformability of the RBCs and the elongation Index starts to decrease. The EImin refers to the lowest level of RBC deformability in the Oxygenscan. The lower the EImin the lower the deformability of the RBC. […] As shown in FIG. 53 and Table 25 (Oxygen affinity curve), Compound 1 increased O2 affinity (decreased p50) in all participants treated. […] These effects were transient, returning to baseline 3 to 7 days after the single dose of Compound 1.
The oxygen affinity of RBCs was measured in patient blood using a Hemox Analyzer (TCS Scientific Corp.), an automatic system for the recording of blood oxygen equilibrium curves and related phenomena. The Hemox Analyzer was used according to standard methods to determine the hemoglobin-oxygen dissociation curves for whole blood samples, numerically characterized by the p50, the partial pressure of oxygen at which hemoglobin is 50% saturated. […] In the case of hemoglobin, the wavelength of maximum absorbance is the measuring wavelength (560 nm), while the reference wavelength is at the isosbestic point at (570 nm). The absorbance at the isosbestic point remains unchanged during the deoxygenation process of the hemoglobin, however the measuring wavelength (560 nm) undergoes a drastic change in absorbance. This change is detected by the electronic circuitry and is plotted as the log/ratio change between the two wavelengths. The log/ratio measurement at 560 nm and 570 nm is utilized to measure the optical absorbance change during the deoxygenation of the hemoglobin. Simultaneously with the measurement of the hemoglobin absorbance, the oxygen concentration is directly measured in the sample using a Clark electrode. […]

[1] = SCD patients, 24 hours after single 700-mg dose

SMILES: O=C([C@H](CO)c1ccccc1)N1CC2=C(C1)CN(S(=O)(=O)c1cnc3c(c1)OCCO3)C2 (single isomer, unassigned) [Compound 1]
- decrease of 2,3-DPG blood concentrations [1]: 26%
- increase of ATP blood concentrations [1]: 30%
- Hb increase compared with placebo (SCD, 24 h after a single dose): ~0.9 g/dL
- POS (Oxygenscan), post-dose (24 hours) (SCD, single 700 mg, median (range), pre-dose 35.4 (27.3, 38.8)): 24.0 (17.9, 31.8)
- Ohyper (Osmoscan), post-dose (24 hours) (SCD, single 700 mg, median (range), pre-dose 380 (371, 399)): 400 (371, 412)
